{
  "source": "patent US10172826B2",
  "about": "“Composition and method to treat and alleviate symptoms of hot flashes in a subject” (U.S. NUTRACEUTICALS, LLC, priority 2015, dated 2019)",
  "key": {"[1]": {"conditions": "major metabolite of sesamin; cited from earlier work"}, "aromatase": {"target": "T1, aromatase (Homo sapiens, UniProt P11511)", "T1 sequence (P11511 1-503)": "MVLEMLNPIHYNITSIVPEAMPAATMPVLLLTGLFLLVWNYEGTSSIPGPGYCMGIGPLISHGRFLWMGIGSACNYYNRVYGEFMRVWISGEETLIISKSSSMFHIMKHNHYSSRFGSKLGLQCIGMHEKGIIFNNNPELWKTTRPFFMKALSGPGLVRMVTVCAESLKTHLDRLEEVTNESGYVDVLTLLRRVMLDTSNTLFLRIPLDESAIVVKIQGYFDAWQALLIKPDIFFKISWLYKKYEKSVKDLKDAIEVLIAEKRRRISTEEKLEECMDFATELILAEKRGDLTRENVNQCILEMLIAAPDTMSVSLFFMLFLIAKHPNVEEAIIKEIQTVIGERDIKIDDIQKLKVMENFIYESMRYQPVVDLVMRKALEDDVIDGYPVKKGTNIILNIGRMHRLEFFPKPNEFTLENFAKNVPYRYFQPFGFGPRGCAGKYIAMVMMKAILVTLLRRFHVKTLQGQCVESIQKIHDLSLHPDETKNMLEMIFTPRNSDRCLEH", "conditions": "cited from earlier work"}, "[2]": {"system": "hot flashes in female subjects experiencing symptoms of perimenopause", "experiment": "Clinical trial of dietary supplement formulas on frequency and severity of hot flashes", "format": "in vivo, women", "conditions": "summary of the trials", "description": "In a clinical trial explained below, 36 mg of HMR Lignan was used and in another example, 20 mg was initially used. In the same clinical trial, the carotenoid such as lycopene was used. The lycopene could be formed as a lycopene complex that includes at least one of phytoene, phytofluene, beta-carotene, tocopherols and phytosterols. In an example, 2 to 10 mg of lycopene was used and in another example, 4 to 8 mg of lycopene was used. In a clinical trial explained below, either 8 or 4 mg of lycopene was used and in an example, 0 mg in order to determine the efficacy of the lycopene relative to the HMR Lignan and other components. The composition also included 40 to 120 mg of Diindolymethane (DIM) or 30 to 140 mg of Diindolymethane, and in an example, 50 milligrams of DIM was used in one trial and 100 milligrams in another trial. About 40 to 80 mg of cranberry was used and in an example, 60 milligrams of cranberry was used as cranberry powder, which gave the coloring and other benefits. Cranberry is used to help relieve adverse urinary symptoms and aid and treat urinary tract infections. Other carotenoids that may possibly be used include at least one of astaxanthin, zeaxanthin, lutein, and xanthophylis.\nA study was conducted to evaluate the effectiveness of a dietary supplement formulation on the reduction and severity of hot flashes in women. […]"}, "[3]": {"system": "estrogen sensitive human breast and endometrial cancer cells", "conditions": "cell cycle progression in G0/G1 phase; cited from earlier work"}, "[4]": {"conditions": "cited from earlier work"}, "[5]": {"system": "endometrial, breast and lung cancer cell lines", "conditions": "compared with alpha or beta-carotene; cited from earlier work"}},
  "data": [
    {"molecule": "O=C1OC[C@H](Cc2cccc(O)c2)[C@H]1Cc1cccc(O)c1", "note": "[Enterolactone, enterolactone]", "values": [
      {"measurement": "Elimination half life", "setting": "[1]", "value": "less than 6 hours"},
      {"measurement": "Aromatase activity", "setting": "aromatase", "value": "inhibit aromatase activity"}
    ]},
    {"molecule": "CC(C)=CCC/C(C)=C/C=C/C(C)=C/C=C/C(C)=C/C=C/C=C(C)/C=C/C=C(C)/C=C/C=C(\\C)CCC=C(C)C", "note": "[Lycopene]", "values": [
      {"measurement": "Conclusion on control of hot flashes", "setting": "[2]", "value": "work alone to control hot flashes"},
      {"measurement": "Inhibition of IGF-1 induced proliferation", "setting": "[3]", "value": "inhibit"},
      {"measurement": "Solubility in water", "setting": "[4]", "value": "insoluble"},
      {"measurement": "Inhibition of proliferation, relative potency", "setting": "[5]", "value": "more potent that alpha or beta-carotene"}
    ]}
  ]
}
